Tested on: SARS-CoV-2 VOC (Alpha, Beta, and Delta)
Assay: SARS-CoV2 VOC testing in Vero cells, standard plaque assay
Type: cell-based

SMILES: Cc1cc(O)c2c(=O)c3c(O)cc(O)c4c5c(O)cc(O)c6c(=O)c7c(O)cc(C)c8c1c2c(c34)c(c78)c65 [Hypericin, hypericin]
- drop of virus titers in comparison to DMSO-treated controls: 3-5 log steps

Source: patent EP4094756A1 (priority 2021, dated 2022)
